The values that follow come from ChEMBL document CHEMBL4699602, “Stapled and Xenopus Glucagon-Like Peptide 1 (GLP-1)-Based Dual GLP-1/Gastrin Receptor Agonists with Improved Metabolic Benefits in Rodent Models of Obesity and Diabetes” (J Med Chem, 2020).

Where a SMILES comes first, the peptide text is derived from it. [ ]: non-standard residue; d: D form. Aib = CC(C)(N)C(=O)O

In the assay the target is Glucagon-like peptide 1 receptor (Homo sapiens, UniProt P43220). The assay is described as follows: Agonist activity at human GLP-1R expressed in HEK293 cells assessed as stimulation of cAMP accumulation incubated for 20 mins. The assay is classed as functional, cell-based. (cAMP levels reflect the balance of adenylyl cyclase and phosphodiesterase activity.)
Glucagon-like peptide 1 receptor, sequence (P43220 whole entry): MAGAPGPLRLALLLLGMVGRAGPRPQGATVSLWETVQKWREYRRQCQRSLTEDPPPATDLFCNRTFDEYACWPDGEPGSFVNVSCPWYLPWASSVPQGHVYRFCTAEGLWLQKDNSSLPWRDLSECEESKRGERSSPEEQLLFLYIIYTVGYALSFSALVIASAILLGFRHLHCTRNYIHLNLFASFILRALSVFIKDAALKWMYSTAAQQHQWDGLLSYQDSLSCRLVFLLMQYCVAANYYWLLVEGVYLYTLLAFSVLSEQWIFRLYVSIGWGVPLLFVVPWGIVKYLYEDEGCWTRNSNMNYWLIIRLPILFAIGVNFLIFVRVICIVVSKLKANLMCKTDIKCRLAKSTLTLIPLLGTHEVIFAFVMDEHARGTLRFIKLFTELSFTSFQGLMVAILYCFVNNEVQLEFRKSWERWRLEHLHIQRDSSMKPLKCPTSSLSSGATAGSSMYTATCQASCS
For orientation: EC50 means the concentration needed to bring the measured effect to its halfway point. For the molecule `CC[C@H](C)[C@H](NC(=O)[C@H](CC(C)C)NC(=O)[C@H](Cc1c[nH]c2ccccc12)NC(=O)[C@H](CCC(=O)O)NC(=O)[C@H](CS)NC(=O)[C@H](Cc1ccccc1)NC(=O)[C@H](CCC(=O)O)NC(=O)[C@H](CCCCN)NC(=O)[C@H](C)NC(=O)[C@H](C)NC(=O)[C@H](CCC(=O)O)NC(=O)[C@H](CCC(=O)O)NC(=O)[C@H](CCC(=O)O)NC(=O)[C@H](CC(C)C)NC(=O)[C@H](Cc1ccc(O)cc1)NC(=O)[C@H](CCC(=O)O)NC(=O)[C@@H](NC(=O)[C@@H](NC(=O)[C@H](CC(=O)O)NC(=O)[C@H](CC(N)=O)NC(=O)[C@@H](NC(=O)[C@H](Cc1ccc(O)cc1)NC(=O)[C@@H](NC(=O)CNC(=O)[C@H](CCC(=O)O)NC(=O)C(C)(C)NC(=O)[C@@H](N)Cc1c[nH]cn1)[C@@H](C)O)[C@@H](C)O)C(C)C)[C@@H](C)O)C(=O)N[C@@H](CCCCN)C(=O)NCC(=O)N[C@@H](CS)C(=O)N1CCC[C@H]1C(=O)N[C@@H](CO)C(=O)N[C@@H](CO)C(=O)NCC(=O)N[C@@H](C)C(=O)N1CCC[C@H]1C(=O)N1CCC[C@H]1C(=O)N1CCC[C@H]1C(=O)N[C@@H](CO)C(N)=O` (HELM PEPTIDE1{H.[Aib].E.G.T.Y.T.N.D.V.T.E.Y.L.E.E.E.A.A.K.E.F.C.E.W.L.I.K.G.C.P.S.S.G.A.P.P.P.S.[am]}$$$$V2.0), the EC50 came to 0.21 nM.
As for `CC[C@H](C)[C@H](NC(=O)[C@H](CC(C)C)NC(=O)[C@H](Cc1c[nH]c2ccccc12)NC(=O)[C@H](CCC(=O)O)NC(=O)[C@H](CS)NC(=O)[C@H](Cc1ccccc1)NC(=O)[C@H](CCC(=O)O)NC(=O)[C@H](CCCCN)NC(=O)[C@H](C)NC(=O)[C@H](C)NC(=O)[C@H](CCC(=O)O)NC(=O)[C@H](CCC(=O)O)NC(=O)[C@H](CCC(=O)O)NC(=O)[C@H](CC(C)C)NC(=O)[C@H](Cc1ccc(O)cc1)NC(=O)[C@H](CCC(=O)O)NC(=O)[C@@H](NC(=O)[C@@H](NC(=O)[C@H](CC(=O)O)NC(=O)[C@H](CC(N)=O)NC(=O)[C@@H](NC(=O)[C@H](Cc1ccc(O)cc1)NC(=O)[C@@H](NC(=O)CNC(=O)[C@H](CCC(=O)O)NC(=O)C(C)(C)NC(=O)[C@@H](N)Cc1c[nH]cn1)[C@@H](C)O)[C@@H](C)O)C(C)C)[C@@H](C)O)C(=O)N[C@@H](CCCCN)C(=O)NCC(=O)N[C@@H](CS)C(N)=O` (HELM PEPTIDE1{H.[Aib].E.G.T.Y.T.N.D.V.T.E.Y.L.E.E.E.A.A.K.E.F.C.E.W.L.I.K.G.C.[am]}$$$$V2.0), the EC50 came out at 0.62 nM.
For `CC[C@H](C)[C@H](NC(=O)[C@H](CS)NC(=O)[C@H](Cc1c[nH]c2ccccc12)NC(=O)[C@H](CCC(=O)O)NC(=O)[C@@H](NC(=O)[C@H](Cc1ccccc1)NC(=O)[C@H](CCC(=O)O)NC(=O)[C@H](CCCCN)NC(=O)[C@H](CS)NC(=O)[C@H](C)NC(=O)[C@H](CCC(=O)O)NC(=O)[C@H](CCC(=O)O)NC(=O)[C@H](CCC(=O)O)NC(=O)[C@H](CC(C)C)NC(=O)[C@H](Cc1ccc(O)cc1)NC(=O)[C@H](CCC(=O)O)NC(=O)[C@@H](NC(=O)[C@@H](NC(=O)[C@H](CC(=O)O)NC(=O)[C@H](CC(N)=O)NC(=O)[C@@H](NC(=O)[C@H](Cc1ccc(O)cc1)NC(=O)[C@@H](NC(=O)CNC(=O)[C@H](CCC(=O)O)NC(=O)C(C)(C)NC(=O)[C@@H](N)Cc1c[nH]cn1)[C@@H](C)O)[C@@H](C)O)C(C)C)[C@@H](C)O)[C@@H](C)CC)C(=O)N[C@@H](CCCCN)C(=O)NCC(=O)N[C@@H](CCCCN)C(=O)N1CCC[C@H]1C(=O)N[C@@H](CO)C(=O)N[C@@H](CO)C(=O)NCC(=O)N[C@@H](C)C(=O)N1CCC[C@H]1C(=O)N1CCC[C@H]1C(=O)N1CCC[C@H]1C(=O)N[C@@H](CO)C(N)=O` (HELM PEPTIDE1{H.[Aib].E.G.T.Y.T.N.D.V.T.E.Y.L.E.E.E.A.C.K.E.F.I.E.W.C.I.K.G.K.P.S.S.G.A.P.P.P.S.[am]}$$$$V2.0) the value was 0.24 nM; for `CC[C@H](C)[C@H](NC(=O)[C@H](CS)NC(=O)[C@H](Cc1c[nH]c2ccccc12)NC(=O)[C@H](CCC(=O)O)NC(=O)[C@@H](NC(=O)[C@H](Cc1ccccc1)NC(=O)[C@H](CCC(=O)O)NC(=O)[C@H](CCCCN)NC(=O)[C@H](CS)NC(=O)[C@H](C)NC(=O)[C@H](CCC(=O)O)NC(=O)[C@H](CCC(=O)O)NC(=O)[C@H](CCC(=O)O)NC(=O)[C@H](CC(C)C)NC(=O)[C@H](Cc1ccc(O)cc1)NC(=O)[C@H](CCC(=O)O)NC(=O)[C@@H](NC(=O)[C@@H](NC(=O)[C@H](CC(=O)O)NC(=O)[C@H](CC(N)=O)NC(=O)[C@@H](NC(=O)[C@H](Cc1ccc(O)cc1)NC(=O)[C@@H](NC(=O)CNC(=O)[C@H](CCC(=O)O)NC(=O)C(C)(C)NC(=O)[C@@H](N)Cc1c[nH]cn1)[C@@H](C)O)[C@@H](C)O)C(C)C)[C@@H](C)O)[C@@H](C)CC)C(=O)N[C@@H](CCCCN)C(=O)NCC(=O)N[C@@H](CCCCN)C(N)=O` (HELM PEPTIDE1{H.[Aib].E.G.T.Y.T.N.D.V.T.E.Y.L.E.E.E.A.C.K.E.F.I.E.W.C.I.K.G.K.[am]}$$$$V2.0), 0.68 nM.
For `CC[C@H](C)[C@H](NC(=O)[C@H](CC(C)C)NC(=O)[C@H](CS)NC(=O)[C@H](CCC(=O)O)NC(=O)[C@@H](NC(=O)[C@H](Cc1ccccc1)NC(=O)[C@H](CCC(=O)O)NC(=O)[C@H](CCCCN)NC(=O)[C@H](C)NC(=O)[C@H](CS)NC(=O)[C@H](CCC(=O)O)NC(=O)[C@H](CCC(=O)O)NC(=O)[C@H](CCC(=O)O)NC(=O)[C@H](CC(C)C)NC(=O)[C@H](Cc1ccc(O)cc1)NC(=O)[C@H](CCC(=O)O)NC(=O)[C@@H](NC(=O)[C@@H](NC(=O)[C@H](CC(=O)O)NC(=O)[C@H](CC(N)=O)NC(=O)[C@@H](NC(=O)[C@H](Cc1ccc(O)cc1)NC(=O)[C@@H](NC(=O)CNC(=O)[C@H](CCC(=O)O)NC(=O)C(C)(C)NC(=O)[C@@H](N)Cc1c[nH]cn1)[C@@H](C)O)[C@@H](C)O)C(C)C)[C@@H](C)O)[C@@H](C)CC)C(=O)N[C@@H](CCCCN)C(=O)NCC(=O)N[C@@H](CCCCN)C(=O)N1CCC[C@H]1C(=O)N[C@@H](CO)C(=O)N[C@@H](CO)C(=O)NCC(=O)N[C@@H](C)C(=O)N1CCC[C@H]1C(=O)N1CCC[C@H]1C(=O)N1CCC[C@H]1C(=O)N[C@@H](CO)C(N)=O` (HELM PEPTIDE1{H.[Aib].E.G.T.Y.T.N.D.V.T.E.Y.L.E.E.E.C.A.K.E.F.I.E.C.L.I.K.G.K.P.S.S.G.A.P.P.P.S.[am]}$$$$V2.0) the value was 0.13 nM.
For `CC[C@H](C)[C@H](NC(=O)[C@H](CC(C)C)NC(=O)[C@H](CS)NC(=O)[C@H](CCC(=O)O)NC(=O)[C@@H](NC(=O)[C@H](Cc1ccccc1)NC(=O)[C@H](CCC(=O)O)NC(=O)[C@H](CCCCN)NC(=O)[C@H](C)NC(=O)[C@H](CS)NC(=O)[C@H](CCC(=O)O)NC(=O)[C@H](CCC(=O)O)NC(=O)[C@H](CCC(=O)O)NC(=O)[C@H](CC(C)C)NC(=O)[C@H](Cc1ccc(O)cc1)NC(=O)[C@H](CCC(=O)O)NC(=O)[C@@H](NC(=O)[C@@H](NC(=O)[C@H](CC(=O)O)NC(=O)[C@H](CC(N)=O)NC(=O)[C@@H](NC(=O)[C@H](Cc1ccc(O)cc1)NC(=O)[C@@H](NC(=O)CNC(=O)[C@H](CCC(=O)O)NC(=O)C(C)(C)NC(=O)[C@@H](N)Cc1c[nH]cn1)[C@@H](C)O)[C@@H](C)O)C(C)C)[C@@H](C)O)[C@@H](C)CC)C(=O)N[C@@H](CCCCN)C(=O)NCC(=O)N[C@@H](CCCCN)C(N)=O` (HELM PEPTIDE1{H.[Aib].E.G.T.Y.T.N.D.V.T.E.Y.L.E.E.E.C.A.K.E.F.I.E.C.L.I.K.G.K.[am]}$$$$V2.0) the value was 0.33 nM.
Consider “H-H[Aib]EGTYTNDVCEYLEEECAKEFIEWLIKGKPSSGAPPSKKKKKK-NH2 (cysteines drawn unpaired)”, for which the EC50 was determined as 0.13 nM.
Next, “H-H[Aib]EGTYTNDVTECLEEEAACEFIEWLIKGKPSSGAPPSKKKKKK-NH2 (cysteines drawn unpaired)”: 0.16 nM.
